Entries after “also recorded” stand apart in the source; their conditions may differ.
Key:
[1] = test system: total nitrite (NO production); assay: total nitrite release from muscularis extracts (index of iNOS activity); format: in vivo, mouse; conditions: IM + CO vs IM, 24 hours after surgery
Description: Protein and Nitric Oxide Determinations. The small bowel of control and mice subjected to intestinal manipulation was removed under sterile conditions, 4 or 24 hours post-operatively, leaving the colon in situ. The small intestine was transferred to a beaker containing chilled Hanks balanced salt solution (Sigma, St. Louis, Mo.) with 200 U/ml penicillin G and 200 μg/ml streptomycin (HBSS), the lumen flushed, and the tissue transferred to a second beaker of HBSS. The muscularis was harvested as described above for real time RT-PCR. Tissues were maintained under sterile conditions at 3 to 5° C. throughout the harvesting procedure. Isolated muscularis was blotted onto sterile gauze, and the wet weight determined to obtain aliquots of 40 to 60 mg. […]
After the incubation period, the muscle tissue was pelleted, and aliquots of culture medium were frozen in liquid nitrogen and stored at −80° C. The levels of IL-6, IL-1β, PGE2, and IL-10 proteins secreted into the culture medium were determined using commercially available ELISA kits (R&D Systems, Minneapolis, Minn.) according to the manufacturer's instructions. […] Nitrate/nitrate levels were measured 24 hrs postoperatively using commercially available test kit (Oxford Biomedical Research, Oxford, Mich.) and quantified according to the manufacturer's directions. […]

HO-1 mRNA = HO-1 mRNA in muscularis after IM (real time RT-PCR); format: in vivo, mouse
Description: Pro- and anti-inflammatory gene expression was determined by real time RT-PCR. The small intestinal muscularis externa was collected at 4 time points (3, 6, 12, and 24 hr) postoperatively and snap frozen in liquid nitrogen. Total RNA extraction was performed using the guanidium-thiocyanate phenol-chloroform extraction method as described in Eskandari et al. (Id.) RNA pellets were resuspended in RNA-secure resuspension solution (Ambion Inc., Austin, Tex.), followed by removal of potential contaminating DNA by treatment with DNase I (DNA-Free Kit, Ambion Inc., Austin, Tex.). Equal aliquots (5 μg) of total RNA from each sample were quantified by spectrophotometry (wavelength […]). Peak mRNA expression was quantified in duplicate by SYBR Green two-step, real-time RT-PCR. β-actin was used as the endogenous reference. Aliquoted RNA (40 ng) was subjected to first-strand complementary DNA (cDNA) synthesis using random hexamers (PE applied Biosystems, Foster City, Calif.) and Super Script II (Life Technologies, Rockville, Md.). Primers were taken from the literature or designed according to published sequences (Table 3). PCR reaction mixture was prepared using SYBR Green PCR Core Reagents (PE Applied Biosystems). Each sample was estimated in duplicate using the conditions recommended by the manufacturer. Real-time PCR data were plotted as the ΔRn fluorescence signal versus the cycle number. An arbitrary threshold was set to the midlinear portion of the log ΔRn cycle plot. The threshold cycle (CT) is defined as the cycle number at which the ΔRn, crosses this threshold. Quantification of mRNA expression was normalized to β-actin and calculated relative to control using the comparative CT method.
To exclude PCR amplification of contaminating genomic DNA, RT-negative controls (samples containing RNA which was not reverse transcribed) were included in each PCR reaction. Melting curve analyses were performed for each reaction to ensure amplification of specific product. […] PCR amplification efficiency of each target cDNA was measured by determining the colinearity of serial dilutions. […]

IL-10 mRNA = assay: Example 3 IL-10 mRNA by SYBR green real time RT-PCR; format: in vivo, mouse; conditions: IM-CO mice
Description: Ileus was induced in mice by gentle manipulation of the small intestine. An incision was made to expose the abdominal cavity of the mouse, and bowel manipulation was performed by gentle poking and prodding of the small intestine (see, e.g., Schwarz et al., Gastroenterology 121(6):1354-1357 (2001)). […] Mice were exposed to CO by inhalation (250 and 500 ppm) for 1 hour immediately prior to intestinal manipulation and during the entire 24-hour recovery period. Intestinal contractility was assessed in vitro by measuring circular muscle strip contractions in response to bethanechol (0.3-300 μM) and in vivo by determining intestinal transit from the distribution of orally-fed, fluorescein-labeled dextran and calculating geometric center as described in Example 1 above. HO-1 and IL-10 mRNA expression were determined by SYBR green real time RT-PCR from extracts of muscularis extemae, as described in Example 1 above. Release of nitric oxide (NO), a potent inhibitor of smooth muscle contractility, was estimated by measuring serum total nitrite, also described in Example 1 above.

[2] = test system: pigs with ileus induced by mild manipulation of the small intestine; assay: intestinal transit of steel ball bearings after IM in pig model; format: in vivo; conditions: CO 250 ppm for 3 hr prior to IM
Description: Similar experiments were performed in a pig model. Ileus was induced by mild manipulation of the small intestine (IM). Pigs were exposed to CO (250 ppm) or air (controls) for a period of 3 hr prior to IM. Gastrointestinal function was assessed in vivo by observing intestinal transit of steel ball bearings placed within the small intestine.

[3] = test system: rats with ileus induced by mild manipulation of the small intestine; assay: Example 4 intestinal transit (geometric center) after IM, CO pre-treatment; format: in vivo, rat
Description: Ileus was induced by mild manipulation of the small intestine (IM). Rats were exposed to decreasing concentrations of CO (250, 125, 75, 30 ppm) in air for a period of either 1 hr or 3 hr prior to laparotomy (n=6). Results were compared to those obtained using previously established protocols of exposure to CO at 250 ppm 1 hr before and for 24 hr after laparotomy. Gastrointestinal function was assessed in vivo by determining intestinal transit from the distribution throughout the GI tract of orally fed fluorescein labeled dextran. The median distribution of the labeled dextran was determined for statistical comparison by calculating the geometric center (GC).

Compound: [C-]#[O+] [CO, carbon monoxide]
- surgically induced increase in nitrite release [1]: significantly inhibited
- HO-1 mRNA expression (HO-1 mRNA; IM + CO vs IM, 3 hr but not 6 hr postoperatively): significantly increased
- HO-1 gene expression, increase over manipulation alone (HO-1 mRNA; IM + CO vs IM, 3 hr postoperatively): 300%
- HO-1 gene expression (HO-1 mRNA; unoperated control mice, CO alone, 6 hr time point): small, though significant, increase; also recorded: increased
- IL-10 expression versus controls (IL-10 mRNA): 35 fold
- intestinal transit [2]: improve
- geometric center (GC) ([3]; IM rats, 250 ppm for 1 hr only prior to surgery): 7.2±0.3
- geometric center (GC) ([3]; IM rats, 250 ppm pretreatment for 3 hr): 8.6±0.3
- geometric center (GC) ([3]; IM rats, 250 ppm, 1 hr pretreatment followed by 24 hr post-treatment): 8.2±0.4
- geometric center (GC) ([3]; IM rats, pre-treating with 30 ppm): 7.0±0.2
- geometric center (GC) ([3]; IM rats, pre-treating with 75 ppm): 8.8±0.1
- geometric center (GC) ([3]; IM rats, pre-treating with 125 ppm): 8.6±0.4
- geometric center (GC) ([3]; unoperated rats, 250 ppm for 24 hr): 8.8±0.4

From US7687079B2, “Methods of treating ileus” (priority 2002, dated 2010)
